These results are taken from patent USRE49022E1, “Insecticidal compounds” (SYNGENTA PARTICIPATIONS AG, priority 2013, dated 2022).

By pest or weed control is commonly meant the degree to which the test organism was suppressed or injured, in per cent. Low readings indicate weak suppression, high ones strong suppression. For orientation: mortality means the percentage killed.

The subject of the first assay is Diabrotica balteata (Corn Root Worm). Put plainly: Diabrotica balteata, artificial diet MTP test. It is filed as in vivo. The note with it: 120 h, 200 ppm (concentration in well 18 ppm), L2 larvae, larval mortality after 5 days. The protocol:
A 24-well microtiter plate (MTP) with artificial diet was treated with test solutions at an application rate of 200 ppm (concentration in well 18 ppm) by pipetting. After drying, the MTP's were infested with L2 larvae (6-10 per well). After an incubation period of 5 days, samples were checked for larval mortality The following compound gave at least 80% control of Diabrotica balteata: 1, 2, 3, 4, 5, 6, 7, 8, 9, 10, 11, 12, 13, 14, 15, 16, 17, 18, 19, 20, 21, 22, 23, 24, 25, 26, 27, 28, 29, 30, 31, 32, 33, 34, 35, 36, 37, 38, 39, 40, 41, 42, 43, 44, 45, 46, 47, 48, 49, 50, 51.
`O=C(Nc1cccc(C(=O)Nc2c(Br)cc(C(F)(C(F)(F)F)C(F)(F)Br)cc2OC(F)F)c1F)c1ccncc1` (stereo not drawn) [Compound 4] yielded a pest or weed control at 200 ppm of no less than 80%.
Same read-out and setting: to `N#Cc1ccc(C(=O)Nc2cccc(C(=O)Nc3c(Br)cc(C(F)(C(F)(F)F)C(F)(F)Br)cc3OC(F)F)c2F)cc1` (stereo not drawn) [Compound 5] belongs no less than 80%.
In turn, `O=C(Nc1cccc(C(=O)Nc2c(Br)cc(C(F)(C(F)(F)F)C(F)(F)Br)cc2OC(F)F)c1F)c1cc[n+]([O-])cc1` (stereo not drawn) [Compound 6] showed a pest or weed control at 200 ppm of no less than 80%.

For another assay, the system named is Myzus persicae (Green Peach Aphid). In words: Myzus persicae, sunflower leaf disc spray test. It is filed as in vivo. The note with it: foliar, 144 h, sprayed sunflower leaf discs, aphid population of mixed ages, mortality after 6 DAT. How it is done:
Sunflower leaf discs were placed on agar in a 24-well microtiter plate and sprayed with test solutions at an application rate of 200 ppm. After drying, the leaf discs were infested with an aphid population of mixed ages. After an incubation period of 6 DAT, samples were checked for mortality.
In turn, `O=C(Nc1cccc(C(=O)Nc2c(Br)cc(C(F)(C(F)(F)F)C(F)(F)Br)cc2OC(F)F)c1F)c1ccncc1` (stereo not drawn) [Compound 4] yielded a pest or weed control at 200 ppm of no less than 80%.
On the same count and under the same terms, to `N#Cc1ccc(C(=O)Nc2cccc(C(=O)Nc3c(Br)cc(C(F)(C(F)(F)F)C(F)(F)Br)cc3OC(F)F)c2F)cc1` (stereo not drawn) [Compound 5] belongs no less than 80%; to `O=C(Nc1cccc(C(=O)Nc2c(Br)cc(C(F)(C(F)(F)F)C(F)(F)Br)cc2OC(F)F)c1F)c1cc[n+]([O-])cc1` (stereo not drawn) [Compound 6], no less than 80%.

The test system is the same in another assay. In words: Myzus persicae, sucrose solution / Parafilm test. It is filed as in vivo. The note with it: 120 h, mixed with sucrose solution under Parafilm, mortality 5 days after infestation. The source says:
Test compounds were applied by pipette into 24 well plates and mixed with Sucrose solution. Application rate: 12.5 ppm. The plates were closed with a stretched Parafilm. A plastic stencil with 24 holes is placed onto the plate and infested pea seedlings were placed directly on the Parafilm. The infested plate is closed with a gel blotting paper and another plastic stencil and then turned upside down. 5 days after infestation the samples were checked on mortality.
The compound `O=C(Nc1cccc(C(=O)Nc2c(Br)cc(C(F)(C(F)(F)F)C(F)(F)Br)cc2OC(F)F)c1F)c1ccncc1` (stereo not drawn) [Compound 4] returned a pest or weed control at 12.5 ppm of no less than 80%.
Compound `N#Cc1ccc(C(=O)Nc2cccc(C(=O)Nc3c(Br)cc(C(F)(C(F)(F)F)C(F)(F)Br)cc3OC(F)F)c2F)cc1` (stereo not drawn) [Compound 5] gave a pest or weed control at 12.5 ppm of no less than 80%.
The compound `O=C(Nc1cccc(C(=O)Nc2c(Br)cc(C(F)(C(F)(F)F)C(F)(F)Br)cc2OC(F)F)c1F)c1cc[n+]([O-])cc1` (stereo not drawn) [Compound 6] showed a pest or weed control at 12.5 ppm of no less than 80%.

A further assay has as its system Plutella xylostella (Diamond Back Moth). Put plainly: Plutella xylostella, artificial diet MTP test. It is filed as in vivo. The settings on record: 144 h, 200 ppm (concentration in well 18 ppm), L2 larvae, 6 days. How it is done: 24-well microtiter plate (MTP) with artificial diet was treated with test solutions at an application rate of 200 ppm (concentration in well 18 ppm) by pipetting. After drying, the MTP's were infested with L2 larvae (7-12 per well). After an incubation period of 6 days, samples were checked for larval mortality and growth regulation. The following compound gave at least 80% mortality of Plutella xylostella: 1, 2, 3, 4, 5, 6, 7, 8, 9, 10, 11, 12, 13, 14, 15, 16, 17, 18, 19, 20, 21, 22, 23, 24, 25, 26, 27, 28, 29, 30, 31, 32, 33, 34, 35, 36, 37, 38, 39, 40, 41, 42, 43, 44, 45, 46, 47, 48, 49, 50.
Regarding `O=C(Nc1cccc(C(=O)Nc2c(Br)cc(C(F)(C(F)(F)F)C(F)(F)Br)cc2OC(F)F)c1F)c1ccncc1` (stereo not drawn) [Compound 4], the mortality at 200 ppm was no less than 80%.
As to `N#Cc1ccc(C(=O)Nc2cccc(C(=O)Nc3c(Br)cc(C(F)(C(F)(F)F)C(F)(F)Br)cc3OC(F)F)c2F)cc1` (stereo not drawn) [Compound 5], the mortality at 200 ppm was no less than 80%.
As for `O=C(Nc1cccc(C(=O)Nc2c(Br)cc(C(F)(C(F)(F)F)C(F)(F)Br)cc2OC(F)F)c1F)c1cc[n+]([O-])cc1` (stereo not drawn) [Compound 6], the mortality at 200 ppm is no less than 80%.

In the next assay the test system is Spodoptera littoralis (Egyptian Cotton Leafworm). In words: Spodoptera littoralis, cotton leaf disc spray test. The note with it: foliar, 72 h, sprayed cotton leaf discs, L1 larvae, 3 days after treatment. It is filed as in vivo. From the text:
Cotton leaf discs were placed on agar in a 24-well microtiter plate and sprayed with test solutions at an application rate of 200 ppm. After drying, the leaf discs were infested with 5 L1 larvae. The samples were checked for mortality 3 days after treatment (DAT).
Compound `O=C(Nc1cccc(C(=O)Nc2c(Br)cc(C(F)(C(F)(F)F)C(F)(F)Br)cc2OC(F)F)c1F)c1ccncc1` (stereo not drawn) [Compound 4] showed a mortality at 200 ppm of no less than 80%.
`N#Cc1ccc(C(=O)Nc2cccc(C(=O)Nc3c(Br)cc(C(F)(C(F)(F)F)C(F)(F)Br)cc3OC(F)F)c2F)cc1` (stereo not drawn) [Compound 5] registered a mortality at 200 ppm of no less than 80%.
Compound `O=C(Nc1cccc(C(=O)Nc2c(Br)cc(C(F)(C(F)(F)F)C(F)(F)Br)cc2OC(F)F)c1F)c1cc[n+]([O-])cc1` (stereo not drawn) [Compound 6] showed a mortality at 200 ppm of no less than 80%.

For another assay, the system named is Spodoptera littoralis (Egyptian Cotton Leaf Worm). In words: Spodoptera littoralis, agar / lettuce root uptake test. It is filed as in vivo. The settings on record: 144 h, mixed with agar, uptake by lettuce roots, mortality 6 days after infestation. From the text:
Test compounds were applied by pipette into 24 well plates and mixed with agar. Application rate: 12.5 ppm. Lettuce seeds were placed on the agar and the multi well plate is closed by another plate which contains also agar. After 7 days the roots have absorbed the compound and the lettuce has grown into the lid plate. The lettuce leafs were now cut off into the lid plate. Spodoptera eggs were pipetted through a plastic stencil on a humid gel blotting paper and the plate closed with it. The samples are checked for mortality 6 days after infestation.
Regarding `O=C(Nc1cccc(C(=O)Nc2c(Br)cc(C(F)(C(F)(F)F)C(F)(F)Br)cc2OC(F)F)c1F)c1ccncc1` (stereo not drawn) [Compound 4], the pest or weed control at 12.5 ppm was no less than 80%.
`N#Cc1ccc(C(=O)Nc2cccc(C(=O)Nc3c(Br)cc(C(F)(C(F)(F)F)C(F)(F)Br)cc3OC(F)F)c2F)cc1` (stereo not drawn) [Compound 5]: the pest or weed control at 12.5 ppm was no less than 80%.
On the same count and under the same terms, to `O=C(Nc1cccc(C(=O)Nc2c(Br)cc(C(F)(C(F)(F)F)C(F)(F)Br)cc2OC(F)F)c1F)c1cc[n+]([O-])cc1` (stereo not drawn) [Compound 6] belongs no less than 80%.

In the next assay the test system is Tetranychus urticae (Two-Spotted Spider Mite). Put plainly: Tetranychus urticae, bean leaf disc spray test. It counts as in vivo. The note with it: foliar, 192 h, sprayed bean leaf discs, mite populations of mixed ages, 8 days. From the text:
Bean leaf discs on agar in 24-well microtiter plates were sprayed with test solutions at an application rate of 200 ppm. After drying, the leaf discs are infested with mite populations of mixed ages. 8 days later, discs were checked for mortality.
As for `O=C(Nc1cccc(C(=O)Nc2c(Br)cc(C(F)(C(F)(F)F)C(F)(F)Br)cc2OC(F)F)c1F)c1ccncc1` (stereo not drawn) [Compound 4], the mortality at 200 ppm is no less than 80%.
`N#Cc1ccc(C(=O)Nc2cccc(C(=O)Nc3c(Br)cc(C(F)(C(F)(F)F)C(F)(F)Br)cc3OC(F)F)c2F)cc1` (stereo not drawn) [Compound 5] gave a mortality at 200 ppm of no less than 80%.
`O=C(Nc1cccc(C(=O)Nc2c(Br)cc(C(F)(C(F)(F)F)C(F)(F)Br)cc2OC(F)F)c1F)c1cc[n+]([O-])cc1` (stereo not drawn) [Compound 6] returned a mortality at 200 ppm of no less than 80%.

The next assay relates to Thrips tabaci (Onion Thrips). In words: Thrips tabaci, sunflower leaf disc spray test. The note with it: foliar, 168 h, sprayed sunflower leaf discs, mortality after 7 days. It counts as in vivo.
Consider `O=C(Nc1cccc(C(=O)Nc2c(Br)cc(C(F)(C(F)(F)F)C(F)(F)Br)cc2OC(F)F)c1F)c1ccncc1` (stereo not drawn) [Compound 4], for which the pest or weed control at 200 ppm was no less than 80%.
Same read-out and setting: to `N#Cc1ccc(C(=O)Nc2cccc(C(=O)Nc3c(Br)cc(C(F)(C(F)(F)F)C(F)(F)Br)cc3OC(F)F)c2F)cc1` (stereo not drawn) [Compound 5] belongs no less than 80%; to `O=C(Nc1cccc(C(=O)Nc2c(Br)cc(C(F)(C(F)(F)F)C(F)(F)Br)cc2OC(F)F)c1F)c1cc[n+]([O-])cc1` (stereo not drawn) [Compound 6], no less than 80%.
